Test results: patent publication US7964643B2, “Aryl alkyl sulfonamides as therapeutic agents for the treatment of bone conditions” (The University Court of the University of Aberdeen, priority 2004, dated 2011)

Each compound was assayed on osteoblasts (assay: Alamar Blue mouse osteoblast assay). Conditions: osteoblast survival, after 72 hours exposure, FIG. 1, read-out: IC50 against osteoblasts (FIG. 1).
Type: cell-based
Protocol: Osteoblasts were isolated as described above and plated at 10^4 cells/well in 96-well plates in 100 μL of […]MEM supplemented with 10% FCS and antibiotics. Test compounds were added after 24 hours and left for 72 hours. Cell viability was assessed using the Alamar Blue assay as described for J774 macrophages. Alamar Blue (Biosource International) was added undiluted to each well (1:10 v/v, 10 μL). The plate was incubated at 37° C. for 3 to 4 hours and the fluorescence was measured at 570 nm, with a 25 nm bandwidth.
Osteoblast Isolation. Briefly, osteoblasts were isolated from the calvarial bones of 2-day-old mice by sequential collagenase digestion (type I collagenase, Sigma) and cultured in αMEM supplemented with 10% FCS (foetal calf serum) and penicillin and streptomycin at 37° C. in 5% CO2.
More specifically, osteoblasts were obtained from a collagenase digestion of the calvaria (skull bones) of 2-3 day old neo-natal C57/bl6 mice. At this stage in their development these are soft and easily removed. The calvaria from 5-6 mice were carefully dissected and washed in HBSS (Hank's balanced saline solution). The calvaria were placed in a 15 mL tube and shaken at 37° C. in 4 mL collagenase (10 mg/ml) for 10 minutes. This removes the excess unwanted tissue. The liquid was disposed of and a further 4 mL collagenase (10 mg/ml) added to the tube. […]
`O=S(=O)(NCCCCO)c1ccc(-c2ccccc2)cc1` [ABD-155, Biphenyl-4-sulfonic acid-(4-hydroxybutyl)-amide] gave an IC50 of over 100 µM.

These compounds were tested on J774 macrophage cell line (assay: Alamar Blue macrophage J774 viability assay). Conditions: Mus musculus, J774, 72 h, 72 hours culture with compound, Alamar Blue, read-out: IC50 (J774).
Type: cell-based
Protocol: Initial screening of candidate compounds was performed using viability assays, on cultures of the macrophage cell line J774, which have been used before as a model system for osteoclast survival (see, e.g., Luckman et al., 1998). The assays are based on the survival of the J774 macrophage cell line; macrophages are closely related to osteoclasts, and contain similar high levels of esterase activity.
J774 cells were plated at 10^4 cells per well in 150 μL αMEM (α Modified Eagle Medium) in 96-well plates and grown overnight. The next day, compounds were added to the cultures, and culture was continued for another 72 hours. At the end of the culture period cell survival was determined using an Alamar Blue assay as previously described (see, e.g., Nociari et al., 1998).
Alamar Blue is an oxidation-reduction sensitive indicator. The dye itself is in the oxidised state, which is blue and non-fluorescent. The dye can accept electrons from reducing species, such as NADPH and FADH, to form a reduced dye species, which is red and fluorescent. Thus the transformation from oxidised form to reduced form can be measured by fluorimetric or colourimetric means. For fluorescence measurements, 530-560 nm excitation and 590 nm emission wavelengths are typically used. For colourimetric measurements, absorbance is measured at 570 nm (reduced form) and 600 nm (oxidised form) and a simple calculation performed to determine the relative quantities of the two species.
A high ratio of the reducing species, NADPH and FADH, to the corresponding oxidised species, NADP and FAD, is an indicator that cells are proliferating and viable. A low ratio indicates cells that are quiescent or non-viable.
Briefly, Alamar Blue (Biosource International) was added undiluted to the each well (1:10 v/v, 15 μL). The plate was incubated at 37° C. for 3-4 hours and the fluorescence was measured at 570 nm, with a 25 nm bandwidth. A high reading indicated cells with normal viability, and a low reading indicates cells that have been damaged and are no longer proliferating normally. The controls gave a high fluorescence reading, indicating a high number of live, healthy cells. A potent test compound gave a low fluorescence reading. The average results for each test compound (n=5) were expressed as a percent (%) of the average control value.
Addition of Compounds. All of the compounds studied were made up as 100 mM solutions in DMSO. These stock solutions were then diluted 100 or 1000× in culture medium (αMEM). From these 1 mM or 100 μM solutions, convenient quantities (3-15 μL) were added directly to the wells so as to give the desired final compound concentration.
`O=S(=O)(NCCCCO)c1ccc(-c2ccccc2)cc1` [ABD-155, Biphenyl-4-sulfonic acid-(4-hydroxybutyl)-amide] gave an IC50 of 18 ± 3 µM.
`O=S(=O)(NCCCCO)c1ccc(-c2ccc(F)cc2F)cc1OC(F)(F)F` [ABD-360, 2′,4′-Difluoro-3-trifluoromethoxybiphenyl-4-sulfonic acid-(4-hydroxybutyl)-amide] was tested, and the IC50 was 1 ± 0.3 µM.
Work on `O=[N+]([O-])c1ccccc1-c1ccc(S(=O)(=O)NCCCCO)c(C(F)(F)F)c1` [ABD-365, 2′-Nitro-3-trifluoromethylbiphenyl-4-sulfonic acid-(4-hydroxybutyl)-amide] yielded an IC50 of 0.3 ± 0.1 µM.
With `Cc1cc(S(=O)(=O)NCCCCO)ccc1-c1ccc(F)cc1` [ABD-320, 4′-Fluoro-2-methylbiphenyl-4-sulfonic acid-(4-hydroxybutyl)-amide] the IC50 was 2.5 ± 0.2 µM.
Compound `O=S(=O)(NCCCCCO)c1ccc(-c2ccc(O)cc2)cc1` [ABD-277, 4′-Hydroxybiphenyl-4-sulfonic acid-(5-hydroxypentyl)-amide] has an IC50 of 21 ± 3 µM.
For `O=[N+]([O-])c1ccccc1-c1ccc(S(=O)(=O)NCCCCO)cc1` [ABD-227, 2′-Nitrobiphenyl-4-sulfonic acid-(4-hydroxybutyl)-amide], the IC50 was 2 ± 0.5 µM.
With `CC(=O)c1ccc(-c2ccc(S(=O)(=O)NCCCCCO)cc2)cc1` [ABD-261, 4′-Acetylbiphenyl-4-sulfonic acid-(5-hydroxypentyl)-amide] the IC50 was 11 ± 2 µM.
`O=S(=O)(NCCCCO)c1ccc(-c2ccc(OC(F)(F)F)cc2)cc1` [ABD-306, 4′-Trifluoromethoxybiphenyl-4-sulfonic acid-(4-hydroxybutyl)-amide] gave an IC50 of 8 ± 1 µM.
Work on `Cc1ccc(-c2ccc(S(=O)(=O)NCCCCCO)cc2)cc1` [ABD-260, 4′-Methylbiphenyl-4-sulfonic acid-(5-hydroxypentyl)-amide] yielded an IC50 of 12 ± 2 µM.
`O=S(=O)(NCCCCO)c1ccc(-c2ccc(F)cc2)cc1` [ABD-200, 4′-Fluorobiphenyl-4-sulfonic acid-(4-hydroxybutyl)-amide] showed an IC50 of 8 ± 2.5 µM.
`O=S(=O)(NCCCCO)c1ccc(-c2ccc(C(F)(F)F)cc2)c(F)c1` [ABD-294, 2-Fluoro-4′-trifluoromethylbiphenyl-4-sulfonic acid-(4-hydroxybutyl)-amide] was tested, and the IC50 was 5 ± 1 µM.
In the case of `O=S(=O)(NCCCCO)c1ccc(-c2ccc(C(F)(F)F)cc2)cc1F` [ABD-302, 3-Fluoro-4′-trifluoromethylbiphenyl-4-sulfonic acid-(4-hydroxybutyl)-amide], the IC50 is reported as 5.5 ± 1.5 µM.
In the case of `O=S(=O)(NCCCCCO)c1ccc(-c2ccc(-c3ccccc3)cc2)cc1` [ABD-279, p-Terphenyl-4-sulfonic acid-(5-hydroxypentyl)-amide], the IC50 is reported as 33 ± 5 µM.
`Cc1cccc(-c2ccc(S(=O)(=O)NCCCCO)cc2)c1` [ABD-308, 3′-Methylbiphenyl-4-sulfonic acid-(4-hydroxybutyl)-amide] gave an IC50 of 28 ± 3 µM.
`N#Cc1ccc(-c2ccc(S(=O)(=O)NCCCCCO)cc2)cc1` [ABD-262, 4′-Cyanobiphenyl-4-sulfonic acid-(5-hydroxypentyl)-amide] gave an IC50 of 12 ± 2 µM.
`O=S(=O)(NCCCCCO)c1ccc(-c2ccccc2)cc1` [ABD-180, Biphenyl-4-sulfonic acid-(5-hydroxypentyl)-amide] showed an IC50 of 20 ± 3 µM.
With `O=S(=O)(NCCCCCO)c1ccc(-c2ccc(F)c(F)c2)cc1` [ABD-257, 3′,4′-Difluorobiphenyl-4-sulfonic acid-(5-hydroxypentyl)-amide] the IC50 was 16 ± 3 µM.
`O=S(=O)(NCCCCO)c1ccc(-c2ccc(C(F)(F)F)cc2)cc1` [ABD-246, 4′-Trifluoromethylbiphenyl-4-sulfonic acid-(4-hydroxybutyl)-amide] was tested, and the IC50 was 5 ± 1 µM.
`O=[N+]([O-])c1cccc(-c2ccc(S(=O)(=O)NCCCCO)cc2)c1` [ABD-226, 3′-Nitrobiphenyl-4-sulfonic acid-(4-hydroxybutyl)-amide] was tested, and the IC50 was 33 ± 3 µM.
Work on `O=C(O)c1ccc(-c2ccc(S(=O)(=O)NCCCCCO)cc2)cc1` [ABD-271, 4′-Carboxybiphenyl-4-sulfonic acid-(5-hydroxypentyl)-amide] yielded an IC50 of 33 ± 3 µM.
`CSc1ccc(-c2ccc(S(=O)(=O)NCCCCO)cc2)cc1` [ABD-258, 4′-Methylthiobiphenyl-4-sulfonic acid-(4-hydroxybutyl)-amide] gave an IC50 of 35 ± 6 µM.
Compound `O=S(=O)(NCCCCCO)c1ccc(-c2ccccc2C(F)(F)F)cc1` [ABD-284, 2′-Trifluoromethylbiphenyl-4-sulfonic acid-(5-hydroxypentyl)-amide] has an IC50 of 6 ± 1.5 µM.
For `O=S(=O)(NCCCCCO)c1ccc(-c2ccc(F)cc2F)cc1` [ABD-248, 2′,4′-Difluorobiphenyl-4-sulfonic acid-(5-hydroxypentyl)-amide], the IC50 was 4.5 ± 1 µM.
`O=S(=O)(NCCCCO)c1ccc(-c2ccccc2I)cc1` [ABD-275, 2′-Iodobiphenyl-4-sulfonic acid-(4-hydroxybutyl)-amide] showed an IC50 of 5.5 ± 1.5 µM.
With `CCOc1ccc(-c2ccc(S(=O)(=O)NCCCCCO)cc2)cc1` [ABD-297, 4′-Ethoxybiphenyl-4-sulfonic acid-(5-hydroxypentyl)-amide] the IC50 was 35 ± 5 µM.
With `O=S(=O)(NCCCCO)c1ccc(-c2ccc(F)cc2F)cc1Cl` [ABD-325, 3-Chloro-2′,4′-difluoro-biphenyl-4-sulfonic acid-(4-hydroxybutyl)-amide] the IC50 was 2.5 ± 0.5 µM.
For `O=S(=O)(NCCCCO)c1ccc(-c2ccccc2)cc1C(F)(F)F` [ABD-310, 3-Trifluoromethylbiphenyl-4-sulfonic acid-(4-hydroxybutyl)-amide], the IC50 was 4.5 ± 1 µM.
`COc1ccccc1-c1ccc(S(=O)(=O)NCCCCCO)cc1` [ABD-267, 2′-Methoxybiphenyl-4-sulfonic acid-(5-hydroxypentyl)-amide] was tested, and the IC50 was 31 ± 4 µM.
Work on `O=S(=O)(NCCCCO)c1ccc(-c2ccc(Br)cc2F)cc1` [ABD-265, 4′-Bromo-2′-fluorobiphenyl-4-sulfonic acid-(4-hydroxybutyl)-amide] yielded an IC50 of 3 ± 1 µM.
Work on `CN(C)c1ccc(-c2ccc(S(=O)(=O)NCCCCCO)cc2)cc1` [ABD-276, 4′-Dimethylaminobiphenyl-4-sulfonic acid-(5-hydroxypentyl)-amide] yielded an IC50 of 32 ± 3 µM.
`Nc1ccccc1-c1ccc(S(=O)(=O)NCCCCO)cc1` [ABD-263, 2′-Aminobiphenyl-4-sulfonic acid-(4-hydroxybutyl)-amide] was tested, and the IC50 was 24 ± 3 µM.
`O=S(=O)(NCCCCO)c1ccc(-c2ccc(Br)cc2)cc1` [ABD-201, 4′-Bromobiphenyl-4-sulfonic acid-(4-hydroxybutyl)-amide] showed an IC50 of 9 ± 2 µM.

Same assay, conditions: Mus musculus, J774, 72 h, after 72 hours exposure, FIG. 1, read-out: IC50 against J774 macrophages (FIG. 1)
Work on `O=S(=O)(NCCCCO)c1ccc(-c2ccccc2)cc1` [ABD-155, Biphenyl-4-sulfonic acid-(4-hydroxybutyl)-amide] yielded an IC50 of under 20 µM.
